Laboratory results reported in PubChem BioAssay (NCI).
Several values for one entry are separate records, joined by “and”; a condition that tells them apart may be missing. Identical values can stand only once.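 A five-concentration, 48-hour dose response in 96-well plates underlies each endpoint, interpolated linearly between surrounding concentrations. GI50 is the concentration that inhibits growth by half. TGI: total growth inhibition.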

Key:
Experiment in all cases: NCI anticancer screen, dose series, 48 h
[1] = test system: OVCAR-8 ovarian
[2] = test system: UO-31 renal
[3] = test system: SF-539 CNS
[4] = test system: SNB-75 CNS
[5] = test system: PC-3 prostate
[6] = test system: NCI-H226 lung
[7] = test system: SR leukemia
[8] = test system: U251 CNS
[9] = test system: K-562 leukemia
[10] = test system: HT29 colon

Row | Structure (SMILES) | GI50 [1] [µM] | TGI [1] | GI50 [2] [µM] | TGI [2] | GI50 [3] [µM] | TGI [3] | GI50 [4] [µM] | TGI [4] [µM] | GI50 [5] [µM] | TGI [5] | GI50 [6] [µM] | TGI [6] | GI50 [7] [µM] | TGI [7] [µM] | GI50 [8] [µM] | TGI [8] | GI50 [9] [µM] | TGI [9] [µM] | TGI [10]
1 | CCN1C(=O)N(CC)C2C1NN=c1s/c(=C\c3cnc(C)n3C)c(=O)n12 (stereo not drawn) | 3.41 | > 100 µM | 5 | > 100 µM | 1.78 | 5.19 µM | 0.324 | 3.44 | 2.07 | > 100 µM | > 100 | > 100 µM | 0.346 | 19.1 | 2.83 | > 100 µM | 0.61 | > 100 | 
2 | CCC(=O)OCN1C(=O)C=CC1=O |  | 35 µM and 37 µM | 17.5 | 31.7 µM and 20.7 µM | 20.5 | 36.8 µM and 33.8 µM |  |  |  | 33.1 µM and 30.9 µM | 15.2 | 30.1 µM and > 63.3 µM | 3.27 | > 100 |  | 31.1 µM and 31.6 µM | 4.19 |  | 40.8 µM and 35.9 µM
3 | CC(=O)Nc1cc(CN2CCCCC2)c(O)c2ncccc12 |  | > 100 µM |  | 46.8 µM |  | > 100 µM |  |  |  | 81 µM |  | 86.1 µM |  | 37.5 |  | 42 µM |  | > 100 | > 100 µM
4 | Nc1ncnc2c1ncn2COC/C=C/I |  | > 100 µM |  | > 100 µM |  | > 100 µM |  | > 100 |  |  |  | > 100 µM |  | > 100 |  | > 100 µM |  | > 100 | > 100 µM
5 | Nc1cc(N)c2nc(-c3ccccc3)c(Oc3ccc(Cl)c(Cl)c3)nc2c1 | 27.9 | 88.4 µM | 13.3 | 60.7 µM | 13.5 | 29.5 µM |  |  | 15.5 | > 100 µM | 15.1 | 49.5 µM | 3.36 | 24.2 | 12.1 | 31.9 µM | 3.55 | > 100 | 
6 | N#CCCn1c(CCC(=O)Nc2ccc(Cl)cc2Cl)n[nH]c1=S |  | > 100 µM |  | > 100 µM |  | > 100 µM |  | > 100 |  |  |  | > 100 µM |  | > 100 |  | > 100 µM |  | > 100 | > 100 µM
7 | NC(C(=O)O)c1ccc(C(=O)O)cc1 (stereo not drawn) |  | > 100 µM |  | > 100 µM |  | > 100 µM |  | > 100 |  |  |  | > 100 µM |  | > 100 |  | > 100 µM |  | > 100 | > 100 µM
8 | CC1=C(C(=O)NCc2ccccc2)C(c2ccccc2O)C(C(=O)NCc2ccccc2)=C(C)N1 |  | 40.9 µM |  | 30.5 µM |  | 38.5 µM |  | > 71.3 |  |  |  | 30.8 µM |  | > 65.9 |  | 29.5 µM |  | 88.9 | 38.5 µM
9 | CC(=O)CC(=O)ON(C)C(=O)Cc1ccccc1 |  | > 100 µM |  | > 100 µM |  | > 100 µM |  | > 100 |  |  |  | > 100 µM |  | > 100 |  | > 100 µM |  | > 100 | > 100 µM
10 | CCCCCCC(=O)CC(=O)C(=O)Nc1ccccc1C |  | > 100 µM |  | > 100 µM |  | > 100 µM |  | > 100 |  |  |  | > 100 µM |  | > 100 |  | > 100 µM |  | > 100 | > 100 µM
11 | NCCNc1ncnc2ccc(Cl)cc12 |  | > 100 µM |  | > 100 µM |  |  |  | > 100 |  | > 100 µM |  | > 100 µM |  | > 100 |  | > 100 µM |  | > 100 | > 100 µM
12 | Cc1ccc(NC(=O)CC2C(=O)Nc3ccccc3S2(=O)=O)cc1C (stereo not drawn) |  | > 100 µM |  | > 100 µM |  | > 100 µM |  | > 100 |  |  |  | > 100 µM |  | > 100 |  | > 100 µM |  | > 100 | > 100 µM
